Measured values published in patent US9428815B2, “HIV-1 reverse transcriptase codon deletion and its use in the management and treatment of HIV infections” (Emory University, priority 2007, dated 2016).

Experiments:
[1] = system: HIVs68Δ-23 (S68del virus isolated at week 23); assay: 3H-TTP RT incorporation assay, drug susceptibility of in vitro-selected S68del virus in human PBM cells; format: cell-based, HIV-1; conditions: for EC50 / EC90: HIVs68Δ-23 in human PBM cells, averages of 2-6 independent experiments; for FI EC50 (fold increase in 50% effective concentration) / FI EC90 (fold increase in 90% effective concentration): HIVs68Δ-23 relative to HIVLAI; for resistance of S68del (in words): S68del mutant HIV, summary statement; for HIVs68Δ-23 susceptibility (in words): NNRTI / PI
Description: Peripheral blood mononuclear (PBM) cells were separated by ficoll-hypaque (Histopaque 1077: Sigma) density gradient centrifugation from Buffy coats obtained from the American Red Cross (Atlanta, Ga.). Buffy coats were derived from healthy seronegative donors. Cells were activated with 3 μg/ml phytohaemagglutinin A (Sigma-Aldrich, St. Louis, Mo.) in 500 ml of RPMI-1640 (Mediatech Inc., Herndon, Va.) containing 100 ml heat-inactivated fetal bovine serum (Hyclone), 83.3 IU/ml penicillin, 83.3 μg/ml streptomycin, 1.6 mM L-glutamine (Mediatech Inc., Herndon, Va.), for 2-3 days prior to use.
Drug resistance of the S68del virus isolated at week 23 (HIVs68Δ-23) was measured with the 3H-TTP RT incorporation assay in human PBM cells (Schinazi, et al., Antimicrob. Agents Chemother. 1990; 34:1061-1067; Stuyver et al., Antimicrob. Agents Chemother. 2002; 46:3854-60). HIVs68Δ-23 was population sequenced to ensure the dominant population was the deletion at codon 68. […] The susceptibility of the S68del virus to several nucleoside reverse transcriptase inhibitors (NRTI), a non-nucleoside reverse transcriptase inhibitor (NNRTI) and a protease inhibitor (PI) was tested. Fold increases were measured relative to HIVLAI (Table 4, FIGS. 2 and 3). Data are the averages of 2-6 independent experiments.

pNL4-3 = assay: Quantitative HIV-1 real-time PCR assay in human PBM cells, pNL4-3 virus; format: cell-based; conditions: Human immunodeficiency virus 1, PBMC, pNL4-3 in human PBM cells
Excerpt: The real-time PCR assay for quantifying virus levels in PBM cells serves as a more sensitive method for measuring drug resistance of S68del HIV-1 than other standard methods. SK38 Primer: ATAATCCACCTATCCCAGTAGGAGAAAT (SEQ ID NO: 1) and SK39 Primer: TTTGGTCCTTGTCTTATGTCCAGAATGC (SEQ ID NO: 2) were used in the real-time PCR assay. The presence of amplified product was detected with the SK19 probe: ATCCTGGGATTAAATAAAATAGTAAGAATGTATAG (SEQ ID NO: 3). […] Four concentrations were tested in duplicate for each data point.

[2] = system: Recombinant S68del Reverse Transcriptase; assay: Heteropolymeric DNA polymerase RT assay in the absence of ATP, recombinant S68del RT; format: biochemical, HIV-1; conditions: Recombinant S68del RT IC50 divided by wild type IC50
Description: (§1) Nucleic acids were separated by gel electrophoresis in a TAE gel and extracted from bands using the Qiagen gel extraction kit. The 4.2 kb band from pNL4-3 containing the HIV-RT encoding sequences was ligated into the linearized pCR2.1, making the construct MC002. Site directed mutagenesis was performed on the MC002 plasmid. Primers used had the S68 codon AGT deleted, thus introducing the S68 deletion into the pNL4-3 RT background.
(§2) To ligate the RT of pNL4-3 comprising the deletion at S68 codon 68 into protein expression vector […] (Invitrogen), MC002 was amplified using forward primer 5′-[…]-3′ (SEQ ID NO: 10) and reverse primer 5′-[…] […]-3′ (SEQ ID NO: 11). The PCR product and pQE60 were digested with Bgl II and Nco I. The digested products were separated by gel electrophoresis nucleic acids in excised gel bands extracted using the Qiagen gel extraction kit. The amplified PCR product comprising the RT of pNL4-3 was ligated into the linearized pQE60. The ligation mix was transformed into chemically competent bacteria (Alpha-select). Plasmid DNA from selected transformants was extracted using a mini-prep kit (Qiagen). Plasmid DNA was sequenced in both directions to confirm the ligation.
(§3) The principle and performance of the non-radioactive RT assay has been described (Lennerstrand et al., Antimicrob. Agents Chemother. 2007; 51:2078-2084). Separate kit components, such as covalently-linked DNA microtiter plates and tracer solution (alkaline phosphate (AP)-conjugated anti-BrdU antibody) were obtained from Cavidi Tech, Uppsala, Sweden. In brief, the 96-well microtiter plate used consisted of an 18 base heteropolymeric DNA primer covalently bound to the well. In the RT assay, the DNA primer is bound to a 50-base DNA template at 50 ng/well (190 nM) with a 5′-A12-3′ tail with a 5′-(GTCA)5-3′ repeat (Integrated DNA Technologies, USA). The RT assay reaction mixture (total volume 150 μl/well) contained: Hepes 50 mM, pH 7.3; MgCl2 10 mM; Triton X-100 0.5%; bovine serum albumin 0.1 mg/ml; dATP, dGTP, dCTP and 5-bromo-2′-deoxyuridine-5′-triphosphate (BrdUTP) at 1.0 μM each (where BrdUTP replaces TTP) (Sigma). To obtain ATP primer unblocking reaction in the assay, the ATP (Amersham/GE Health Care) was set to physiological concentration (3.2 mM). However, the ATP was only used in the assay with virus pellets as sample, not merely for primer unblocking reaction but to protect degradation of substrate in the crude sample. Furthermore, the dNTP level including BrdUTP was increased from 1 μM to 4 μM for the assay with the virus pellet samples. Subsequently, in the assay with recombinant purified RT enzyme, no ATP besides 1 μM dNTP was used.
(§4) The reaction was started with the addition of RT either as recombinant or crude virus pellet form in a similar activity range as previous published (Lennerstrand et al., Antimicrob. Agents Chemother. 2007; 51:2078-2084). The RT reaction mixture was incubated at 33° C. for 180 min and terminated by NaOH (to dehybridize the template) and water washing of the plates.

[3] = target: T1, Recombinant S68del Reverse Transcriptase (Human immunodeficiency virus type 1 group M subtype B, UniProt P12497, DEL655-655); assay: as above; format: biochemical, HIV-1
T1 construct: The amplified PCR product comprising the RT of pNL4-3 was ligated into the linearized pQE60; inferred from the pQE60 vector and the in-frame BglII site of the reverse primer without a stop codon) (C); made in house; host or cells: bacteria
Description: as §1, §2, §3, §4

[4] = target: T2, Wild type Reverse Transcriptase (Human immunodeficiency virus type 1 group M subtype B, UniProt P12497); assay: Heteropolymeric DNA polymerase RT assay in the absence of ATP, wild type RT; format: biochemical, HIV-1; conditions: for IC50: Wild type RT; for Fold-incr: Wild type RT (reference)
T2 construct: The level of resistance to NRTI-TP by the S68del mutants compared to wild type RT
Description: The level of resistance to NRTI-TP by the S68del mutants compared to wild type RT was determined as IC50 values of RT activity in the absence of ATP (Table 6). […] The RT activity was linear during the assay time within the substrate range used, and thus steady state kinetics were assumed.

[5] = target: T3, RT from virally-derived S68del (Human immunodeficiency virus type 1 group M subtype B, UniProt P03367, DEL667-667); assay: Heteropolymeric-DNA colorimetric RT assay with 3.2 mM ATP, particle-derived S68del RT; format: biochemical, HIV-1; conditions: for fold increase in resistance: virally-derived S68del RT, relative to HIVLAI, enzymatic assay; for resistance of S68del RT (in words): particle-derived RT, 3.2 mM ATP, FIG. 5
T3 construct: The resistance of RT derived from S68del and M184V particles; made in house; host or cells: crude virus pellet; the virus was passaged in human PBM cells
Excerpt: as §3, §4

S68delpNL4-3 = assay: microbe, parasite or virus in culture; format: cell-based, HIV-1
Excerpt: An intermediate vector with a 4 kb fragment of pNL4-3 ([…]) containing the RT coding region was cloned into the pCR2.1 vector (Invitrogen). […] The HIV-1 fragment from the intermediate vector was digested with Spe I/Age I and subcloned into the full-length pNL4-3 vector. The S68del pNL4-3-based infectious clone was then transfected into HEK293T cells and supernatant was collected after 4 days. The supernatant obtained from HEK293T was used to infect fresh PBM cells, after which the HIV-1 virus pool was passaged to establish an infective pool.
Four concentrations were tested in duplicate for each data point.

[6] = target: RT derived from M184V particles (Human immunodeficiency virus type 1 group M subtype B, UniProt P03367, M783V); conditions: particle-derived RT, 3.2 mM ATP, FIG. 5
Excerpt: as §3, with “Subsequently, in the assay with recombinant purified RT enzyme, no ATP besides 1 μM dNTP was used.” left out

[7] = Human immunodeficiency virus 1, PBMC
[8] = Human immunodeficiency virus 1, PBMC, S68del in pNL4-3, human PBM cells, real-time PCR

## Nc1nc2c(ncn2C2COC(CO)O2)c(=O)[nH]1 (single isomer, unassigned; (-)) [DXG, (−)-9-(beta-D-dioxolane)guanine]
[1]
  EC50: 1.6 µM
  EC90: 5.1 µM
  FI EC50 (fold increase in 50% effective concentration): 6.2
  FI EC90 (fold increase in 90% effective concentration): 3.7

## Cc1cn([C@H]2C[C@H](N=[N+]=[N-])[C@@H](CO)O2)c(=O)[nH]c1=O [AZT, 3′-azido-3′-deoxythymidine]
pNL4-3
  EC50: 0.13 µM
  EC90: 0.33 µM
[1]; [7]
  EC50: 0.0038 µM
  EC90: 0.014 µM
[1]
  resistance of S68del (in words): does not show increased resistance

## Nc1nc(=O)n(C2C=CC(COP(=O)(O)OP(=O)(O)OP(=O)(O)O)O2)cc1F (stereo not drawn) [DFC-TP]
[2]
  Fold-incr: 7.9
[3]
  IC50: 1.1 ± 0.2 µM
[4]
  IC50: 0.14 ± 0.02 µM
  Fold-incr: 1.0
[5]
  fold increase in resistance: 5.6 fold

## Nc1nc(=O)n([C@H]2C=C[C@@H](CO)O2)cc1F [DFC, β-D-2′,3′-didehydro-2′,3′-dideoxy-5-fluorocytidine]
pNL4-3
  EC50: 0.21 µM
  EC90: 2.3 µM
[5]
  resistance of S68del RT (in words): increased resistance
S68delpNL4-3; [8]
  EC50: 3.1 µM
  EC90: 8.5 µM
S68delpNL4-3; S68del in pNL4-3 versus pNL4-3
  FI50, Fold Increase for S68del in 50% effective concentration: 14.7
  FI90, Fold Increase for S68del in 90% effective concentration: 3.7
S68delpNL4-3; real-time PCR, human PBM cells
  resistance of S68delpNL4-3 (in words): increased resistance
[1]; [7]
  EC50: 1.1 µM
  EC90: 3.4 µM

## Nc1nc(=O)n([C@@H]2CS[C@H](CO)O2)cc1F (relative stereo) [(−)-FTC, cis-2-hydroxymethyl-5-(5-fluorocytosin-1-yl)-1,3-oxathiolane]
[6]
  resistance of M184V RT (in words): increased resistance
[5]
  resistance of S68del RT (in words): increased resistance
[1]; [7]
  EC50: 0.3 µM
  EC90: 1.1 µM

## Nc1nc(NC2CC2)c2ncn([C@H]3C=C[C@@H](CO)C3)c2n1.O=C(O)CCC(=O)O [Abacavir, (1S,4R)-4-[2-amino-6-(cyclopropyl-amino)-9H-purin-9-yl]-2-cyclopentene-1-methanol succinate]
[1]; [7]
  EC50: 3.9 µM
  EC90: 11.3 µM

## Cc1cn(C2CC(N=[N+]=[N-])C(COP(=O)(O)OP(=O)(O)OP(=O)(O)O)O2)c(=O)[nH]c1=O (stereo not drawn) [AZT-TP]
[2]
  Fold-incr: 2.6
[3]
  IC50: 0.7 ± 0.1 µM
[4]
  IC50: 0.27 ± 0.02 µM
  Fold-incr: 1.0
[5]
  fold increase in resistance: 2.5 fold

## CC(C)OC(=O)OCOP(=O)(CO[C@H](C)Cn1cnc2c(N)ncnc21)OCOC(=O)OC(C)C.O=C(O)/C=C/C(=O)O [TDF, 9-[(R)-2-[[bis[[(isopropoxycarbonyl)oxy]methoxy]phosphinyl]methoxy]propyl]adenine fumarate]
[1]; [7]
  EC50: 0.43 µM
  EC90: 1.6 µM

## Nc1nc(N)c2ncn([C@H]3CO[C@@H](CO)O3)c2n1 [DAPD, (−)-beta-D-2,6-diaminopurine dioxolane]
[1]
  FI EC50 (fold increase in 50% effective concentration): 38.2
  FI EC90 (fold increase in 90% effective concentration): 32.4
[1]; [7]
  EC50: 7.9 µM
  EC90: 34.5 µM

## Nc1nc(=O)n(C2CSC(COP(=O)(O)OP(=O)(O)OP(=O)(O)O)O2)cc1F (single isomer, unassigned; (-)) [(−)FTC-TP]
[2]
  Fold-incr: 7.7
[3]
  IC50: 27 ± 2 µM
[4]
  IC50: 3.5 ± 0.3 µM
  Fold-incr: 1.0
[5]
  fold increase in resistance: 10 fold

## Nc1ccn([C@H]2CC[C@@H](CO)O2)c(=O)n1 [DDC, 2′,3′-dideoxycytidine]
[1]; [7]
  EC50: 0.22 µM
  EC90: 0.93 µM
[1]
  resistance of S68del (in words): does not show increased resistance

## Nc1ccn([C@@H]2CS[C@H](CO)O2)c(=O)n1 [3TC, (−)-cis-2-hydroxymethyl-5-(cytosin-1-yl)-1,3-oxathiolane]
[1]; [7]
  EC50: 0.88 µM
  EC90: 3.3 µM

## O=C1Nc2ccc(Cl)cc2[C@@](C#CC2CC2)(C(F)(F)F)O1 [Sustiva, (S)-6-chloro-4-cyclopropylethynyl-4-trifluoromethyl-1,4-dihydro-2H-3,1-b-enzoxazin-2-one]
[1]; [7]
  EC50: 0.00039 µM
  EC90: 0.0035 µM
[1]
  HIVs68Δ-23 susceptibility (in words): not significantly changed

## Cc1cccc(C)c1OCC(=O)N[C@@H](Cc1ccccc1)[C@@H](O)C[C@H](Cc1ccccc1)NC(=O)[C@H](C(C)C)N1CCCNC1=O [Lopinavir]
[1]; [7]
  EC50: 0.006 µM
  EC90: 0.019 µM
[1]
  HIVs68Δ-23 susceptibility (in words): not significantly changed

## OC[C@@H]1CC[C@H](n2cnc3c(O)ncnc32)O1 [DDI, 2′,3′-dideoxyinosine]
[1]; [7]
  EC50: 0.63 µM
  EC90: 4.5 µM
[1]
  resistance of S68del (in words): does not show increased resistance

## Cc1cn([C@H]2C=C[C@@H](CO)O2)c(=O)[nH]c1=O [D4T, 2′,3′-dideoxy-2′,3′-didehydrothymidine]
[1]; [7]
  EC50: 0.41 µM
  EC90: 1.5 µM
[1]
  resistance of S68del (in words): does not show increased resistance
